Assay results from ChEMBL document CHEMBL4414616, “Exhaustive Repertoire of Druggable Cavities at Protein-Protein Interfaces of Known Three-Dimensional Structure” (J Med Chem, 2019).
Activity calls are given as the source filed them. The calls are words filed in the database; no cut-off is given here.

Experiments:
Lactobacillus johnsonii [1] = experiment: Inhibition of catalytic activity of His6-tagged Lactobacillus johnsonii N6.2 cinnamoyl esterase LJ0536 expressed in Escherichia coli BL21 (DE3) assessed as reduction in hydrolysis of 4-nitrophenyl butyrate in 4-nitrophenol at 400 uM in presence of 2.5 to 20 mM enzyme pre-incubated for 2 hrs
Lactobacillus johnsonii [2] = experiment: Inhibition of catalytic activity of His6-tagged Lactobacillus johnsonii N6.2 cinnamoyl esterase LJ0536 expressed in Escherichia coli BL21 (DE3) assessed as reduction in hydrolysis of 4-nitrophenyl butyrate in 4-nitrophenol pre-incubated for 2 hrs
Lactobacillus johnsonii [3] = experiment: Non-competive inhibition of catalytic activity of His6-tagged Lactobacillus johnsonii N6.2 cinnamoyl esterase LJ0536 expressed in Escherichia coli BL21 (DE3) assessed as substrate Vmax by measuring hydrolysis of 4-nitrophenyl butyrate in 4-nitrophenol at 400 uM pre-incubated for 2 hrs (reference value: 4.094 umol/min/mg)

Question: `CC(C(=O)O)c1ccc(-c2ccccc2)c(F)c1` (stereo not drawn) was tested. Which inhibition (Lactobacillus johnsonii [1]) did it give?
Answer: Active

Question: And the inhibition (Lactobacillus johnsonii [2])?
Answer: Dose-dependent effect

Question: And the Vmax (Lactobacillus johnsonii [3])?
Answer: 3.7 µmol/min/mg
